{"source": "patent US12383555B2", "about": "“Methods of treating cancers” (Foghorn Therapeutics Inc., priority 2020, dated 2025)", "key": {"[1]": {"test_system": "AML cell lines (OCIAML5)", "assay": "Cancer cell line growth inhibition (Cell-titer glo, GI50, day 3 and day 7), compound 17", "type": "cell-based", "conditions": "compound 17, 0 to 10 micromolar"}, "[2]": {"test_system": "AML cell lines (OCIAML5, KASUMI1)", "assay": "Cancer cell line growth inhibition (Cell-titer glo, GI50, day 3 and day 7), compound 18", "type": "cell-based", "conditions": "compound 18, 0 to 10 micromolar", "experimental": "Procedure: Uveal melanoma cell lines (92-1, MP41, MP38, MP46), prostate cancer cell lines (LNCAP), lung cancer cell lines (NCIH1299), and immortalized embryonic kidney lines (HEK293T) were plated into 96 well plates with growth media (see Table 1). […] Cells were incubated at 37° C. for 3 days. After 3 days of treatment, the media was removed from the cells, and 30 microliters of TrypLE (Gibco) was added to cells for 10 minutes. Cells were detached from the plates and resuspended with the addition of 170 microliters of growth media. Cells from two DMSO-treated control wells were counted, and the initial number of cells plated at the start of the experiment, were re-plated into fresh-compound containing plates for an additional four days at 37° C. At day 7, cells were harvested as described above.\nOn day 3 and day 7, relative cell growth was measured by the addition of Cell-titer glo (Promega), and luminescence was measured on an Envision plate reader (Perkin Elmer).\nAt the time of cell splitting on days 3 and 7, cells were split into new 96 well plates, and fresh compound was added four hours after re-plating.\nProcedure: All cell lines described above in Example 2 were also tested as described above with compound 18. In addition, the following cell lines were also tested as follows. […]"}, "[3]": {"test_system": "EOL-1 human AML tumor cells", "assay": "Subcutaneous EOL-1 tumor growth in vivo", "parameters": "species or system BALB/c Nude mice", "conditions": "50 mg/kg daily for 21 days, oral route", "experimental": "(§1) Method: BALB/c Nude mice (Beijing Anikeeper Biotech, Beijing) were inoculated subcutaneously on the right flank with the single cell suspension of EOL-1 or MV4;11 human AML tumor cells (1×10^7) in 100 μL IDMD in 10% Fetal Bovine Serum (FBS). When tumor size reach ˜100 mm3, the mice were randomized into either Vehicle group [20% HP-β-CD) or Treatment group: Compound 19 at 50 mg/kg daily for 21 days per oral route. All dose volumes were adjusted by body weights in terms of mg/kg."}, "[4]": {"test_system": "MV4;11 human AML tumor cells", "assay": "Subcutaneous MV4;11 tumor growth in vivo", "parameters": "species or system BALB/c Nude mice", "conditions": "50 mg/kg daily for 21 days, oral route", "experimental": "as §1"}, "[5]": {"assay": "Tolerability by % body weight change in EOL-1 or MV4;11 tumor-bearing mice", "type": "in vivo", "conditions": "50 mg/kg daily for 21 days, oral route; MV4;11 and EOL-1 models", "experimental": "as §1"}, "[6]": {"test_system": "OCI-AML2 human AML tumor cells", "assay": "Subcutaneous OCI-AML2 tumor growth in vivo", "parameters": "species or system SCID mice", "conditions": "1.5 mg/kg daily for 21 days, oral route; tumor carries a DNMT3A mutation", "experimental": "(§2) Method: SCID mice (Charles River, Wilmington) were inoculated subcutaneously on the right flank with the single cell suspension of OCI-AML2 human AML tumor cells (1×10^7) in 100 μL in RPMI-1640 media. When tumor size reach ˜100 mm^3, the mice were randomized into either Vehicle group (20% HP-β-CD) or Treatment group (Compound 20 at 1.5 mg/kg daily for 21 days per oral route). All dose volumes were adjusted by body weights in terms of mg/kg."}, "[7]": {"assay": "Tolerability by % body weight change in OCI-AML2 tumor-bearing mice", "type": "in vivo", "conditions": "1.5 mg/kg daily for 21 days, oral route", "experimental": "as §2"}}}
{"smiles": "CSCC[C@H](NC(=O)c1ccc(N)cc1)C(=O)Nc1nc(-c2cccc(-c3ccncc3)c2)cs1", "note": "[Compound 17, 4-amino-N-[(1S)-3-methylsulfanyl-1-[[4-[3-(4-pyridyl)phenyl]thiazol-2-yl]carbamoyl]propyl]benzamide]", "values": [{"measurement": "Duration of inhibition of the AML cell lines (FIG. 1)", "setting": "[1]", "result": "maintained through day 7"}]}
{"smiles": "CSCC[C@H](NC(=O)c1ccn(S(C)(=O)=O)c1)C(=O)Nc1nc(-c2cccc(-c3ccncc3)c2)cs1", "note": "[Compound 18, (S)-1-(methylsulfonyl)-N-(4-(methylthio)-1-oxo-1-((4-(3-(pyridin-4-yl)phenyl)thiazol-2-yl)amino)butan-2-yl)-1H-pyrrole-3-carboxamide]", "values": [{"measurement": "Duration of inhibition of the AML cell lines (FIG. 2)", "setting": "[2]", "result": "maintained through day 7"}, {"measurement": "Sensitivity of the AML cell lines relative to the other tested cell lines (GI50, FIG. 2)", "setting": "[2]; day 3 and day 7", "result": "more sensitive to BRG1/BRM inhibition than the other tested cell lines"}]}
{"smiles": "C[C@@H]1CN(c2cccc(-c3csc(NC(=O)CNC(=O)c4ccn(C(C)(C)C)c4)n3)n2)C[C@H](C)O1", "note": "[Compound 19, 1-(tert-butyl)-N-(2-((4-(6-(cis-2,6-dimethylmorpholino)pyridin-2-yl)thiazol-2-yl)amino)-2-oxoethyl)-1H-pyrrole-3-carboxamide]", "values": [{"measurement": "Effect on EOL-1 tumor growth (FIG. 5)", "setting": "[3]", "result": "delayed the growth"}, {"measurement": "Effect on MV4;11 tumor growth (FIG. 4)", "setting": "[4]", "result": "tumor stasis"}, {"measurement": "Tolerability based on % body weight change", "setting": "[5]", "result": "well tolerated"}]}
{"smiles": "COC[C@H](NC(=O)c1ccn(S(C)(=O)=O)c1)C(=O)Nc1nc(-c2cccc(N3C[C@@H](C)O[C@@H](C)C3)n2)cs1", "note": "[Compound 20, N—((S)-1-((4-(6-(cis-2,6-dimethylmorpholino)pyridin-2-yl)thiazol-2-yl)amino)-3-methoxy-1-oxopropan-2-yl)-1-(methylsulfonyl)-1H-pyrrole-3-carboxamide]", "values": [{"measurement": "Effect on OCI-AML2 tumor growth (FIG. 6)", "setting": "[6]", "result": "inhibited the growth"}, {"measurement": "Tolerability based on % body weight change", "setting": "[7]", "result": "well tolerated"}]}
